Data taken from patent publication US5691376A, “Substituted biphenyl derivatives” (American Home Products Corporation, priority 1996, dated 1997).
Structures can show the parent of a compound that is named as a salt.

Key:
U937 PDE IV = experiment: Test procedure No. 3: inhibition of PDE-IV isolated from U937 cells; format: biochemical; details: 1 μM [3H]-cAMP; 37° C.; pH 7.8; linear regression of percent inhibition
[1] = tested on: PDE IV isolated from dog tracheal muscle; experiment: Test Procedure No. 1: inhibition of PDE IV from canine tracheal muscle (cAMP metabolism); format: biochemical, dog (canine); details: 1 μM 3H-cAMP, 10 μM CI-930, 30° C.
Experimental: A solution containing PDE IV is prepared from canine tracheal muscle as follows:
The dog is euthanized with an overdose of beuthanasia while under anesthesia induced by a 33 mg/kg IV bolus of Nembutal. The trachealis muscle is removed, cleaned of connective tissue, and minced thoroughly. Three to four grams of tissue is then homogenized in Tris-HCl buffer (pH 7.8) using a Polytron. The homogenate is then centrifuged at 25,000×g (4° C.) for 30 minutes. The supernatant is decanted and filtered through four layers of gauze, and applied to a 40 cm×2 cm DEAE-Sepharose column that is equilibrated with Tris-HCl buffer (pH 7.8). The column is then washed with an additional 240 mL of buffer to remove unbound proteins. PDE is eluted using 450 mL of Tris-HCl buffer containing a linear gradient of 0.0-1.0M Na-acetate (80 mL/hr), and 7.5 mL fractions are collected. Each fraction is assayed for cAMP- and cGMP-metabolizing PDE activity. Fractions eluting at approximately 0.6M Na-acetate, and containing cAMP but not cGMP metabolic activity are pooled and used as a PDE stock solution for assaying PDE IV inhibitory activity.
CI-930 is included as an inhibitor of the cyclic GMP-sensitive, cyclic AMP-selectivePDE (PDE III) that is also present in the PDE IV stock solution when prepared as described above.
The two abovementioned PDE IV inhibition tests were used to determine the PDE IV inhibitory abilities of some of the compounds of the present invention.

PDE IV = experiment: Test Procedure No. 2: functional PDE IV inhibition, relaxation of carbachol-precontracted tracheal rings with CI-930; format: cell-based, guinea pig (Male Hartley); details: guinea pig tracheal rings precontracted with 1 μM carbachol; CI-930 10 μM; read-out: Test No. 2 IC50 (functional PDE inhibitory test)
Experimental: The following standard test is also employed to assess the abilities of compounds to inhibit PDE IV functionally.
Male Hartley guinea pigs (500-550 g, Charles River) were euthanized by a blow to the head, and the tracheas were removed and placed in aerated physiological salt solution (PSS) containing NaCl ([…]), KH2 PO4 ([…]), KCl (4.74 mM), CaCl2 (2.5 mM), MgSO4.7H2 O ([…]), NaHCO3 (25 mM), dextrose (11.1 mM), cocaine and hydrocortisone (3 μM and 10 μM, respectively, to block intraneural and extraneural uptake mechanisms), propranolol and phentolamine (1 μM and 10 μM, respectively, to block adrenoceptors),indomethacin (2.8 μM; to block spontaneous tension generation), and calcium disodium EDTA (26 μM, as an antioxidant). Tracheal rings were prepared and mounted in 10 ml organ baths for the measurement of isometric tension generation as previously described (Heaslip et al., 1986).
Tracheal relaxation resulting from the inhibition of PDE-IV or PDE-III was assessed by a method similar to that employed by Harris et al. (1989). Tracheal rings were precontracted with 1 μM carbachol until a stable level of tension was obtained (30 min). To explore the inhibition of PDE-IV, tracheal rings were then incubated (45 min) with CI-930 (10 μM), thus inhibiting PDE-III and sensitizing the ring to the relaxant effects of PDE-IV inhibitors. Conversely, the inhibition of tracheal PDE-III was explored using rings pretreated with rolipram (10 μM), and thereby sensitized to PDE-III inhibitors (Harris et al., 1989). The functional inhibition of PDE-IV or PDE-III was determined by adding a test compound to the tissue bath in cumulatively increasing concentrations and monitoring the degree of relaxation induced in the continued presence of CI-930 or rolipram (respectively). After adding the final concentration of test compound to the organ bath, tracheal rings were washed repeatedly with PSS, and allowed to relax to resting tension. Percent relaxations produced by each concentration of test compound were calculated as a percentage relaxation of tension maintained in the presence of the preincubating PDE inhibitor, relative to the final resting tension determined at the end of each experiment.
The two abovementioned PDE IV inhibition tests were used to determine the PDE IV inhibitory abilities of some of the compounds of the present invention. The table below indicates the compounds tested and the results thereof. For each of Tests 1 and 2, the results are given as IC50 s for the compound tested in M concentrations.

With `COc1ccc(-c2ccc(C(=O)NCc3cccnc3)cc2)cc1OC1CCCC1` [Comparative Example 1, 3'-Cyclopentyloxy-4'-methoxy-biphenyl-4(3-methylpryridyl) carboxylic acid amide, reference compound] the IC50 (U937 PDE IV) was over 1000 nM.

With `COc1ccc(-c2ccc(C(=O)O)cc2)cc1OC1CCCC1` [Example 1, 3'-Cyclopentyloxy-4'-methoxy-biphenyl-4-carboxylic acid] the IC50 (U937 PDE IV) was 230 nM and the IC50 ([1]; pH 7.8) was 245 nM.

`COc1ccc(-c2ccc(C(N)=O)cc2)cc1OC1CCCC1` [Example 2, 3'-Cyclopentyloxy-4'-methoxy-biphenyl-4-carboxylic acid amide] showed an IC50 (PDE IV) of 160 nM and an IC50 ([1]; pH 7.8) of 60 nM.

In the case of `COc1ccc(-c2ccc(C(=O)NN)cc2)cc1OC1CCCC1` [Example 3, 3'-Cyclopentyloxy-4'-methoxy-biphenyl-4-carboxylic acid hydrazide], the IC50 (PDE IV) is reported as 66 nM and the IC50 ([1]; pH 7.8) is reported as 58 nM.

`COc1ccc(-c2cccc(C(=O)NN)c2)cc1OC1CCCC1` [Example 4, 3'-Cyclopentyloxy-4'-methoxy-biphenyl-3-carboxylic acid hydrazide] was tested, and the IC50 ([1]; pH 7.8) was 100 nM.

For `COc1ccc(-c2cccc(C(=O)O)c2)cc1OC1CCCC1` [Example 5, 3'-Cyclopentyloxy-4'-methoxy-biphenyl-3-carboxylic acid], the IC50 (PDE IV) was 61 nM and the IC50 ([1]; pH 7.8) was 23 nM.

`COc1ccc(-c2ccc(Cl)cc2)cc1OC1CCCC1` [Example 6, 4-Chloro-3'-Cyclopentyloxy-4'-methoxy-biphenyl] was tested, and the IC50 (PDE IV) was 12000 nM and the IC50 ([1]; pH 7.8) was 100 nM.

Compound `COc1ccc(-c2cccc(C=O)c2)cc1OC1CCCC1` [Example 8, 3'-Cyclopentyloxy-4'-methoxy-biphenyl-3-carbaldehyde] has an IC50 (PDE IV) of 330 nM and an IC50 ([1]; pH 7.8) of 34 nM.

`COc1ccc(-c2ccc(C=O)cc2)cc1OC1CCCC1` [Example 9, 3'-Cyclopentyloxy-4'-methoxy-biphenyl-4-carbaldehyde] was tested, and the IC50 (PDE IV) was 23 nM and the IC50 ([1]; pH 7.8) was 20 nM.

`COc1ccc(-c2ccccc2C=O)cc1OC1CCCC1` [Example 10, 3'-Cyclopentyloxy-4'-methoxy-biphenyl-2-carbaldehyde] was tested, and the IC50 ([1]; pH 7.8) was 100 nM.

Compound `COc1ccc(-c2cccc(C(C)=O)c2)cc1OC1CCCC1` [Example 11, 1-(3'-Cyclopentyloxy-4'-methoxy-biphenyl-3-yl)-ethanone] has an IC50 ([1]; pH 7.8) of 4.3 nM.

For `COc1ccc(-c2ccc(C(C)=O)cc2)cc1OC1CCCC1` [Example 12, 1-(3'-Cyclopentyloxy-4'-methoxy-biphenyl-4-yl)-ethanone], the IC50 ([1]; pH 7.8) was 86 nM.

In the case of `COc1ccc(-c2ccc(C(=O)c3ccccc3)cc2)cc1OC1CCCC1` [Example 13, (3'-Cyclopentyloxy-4'-methoxy-biphenyl-4-yl)-phenylmethanone], the IC50 ([1]; pH 7.8) is reported as 610 nM.

For `COc1ccc(-c2cccc(C#N)c2)cc1OC1CCCC1` [Example 14, 3'-Cyclopentyloxy-4'-methoxy-biphenyl-3-carbonitrile], the IC50 ([1]; pH 7.8) was 84 nM.

`COc1ccc(-c2ccc(N)cc2)cc1OC1CCCC1` [Example 16, 3'-Cyclopentyloxy-4'-methoxybiphenyl-4-ylamine] was tested, and the IC50 ([1]; pH 7.8) was 330 nM.

`COc1ccc(-c2ccc(C(=O)O)cc2)cc1OC1CCCC1` [Example 17, 3'-Cyclopentyloxy-4'-methoxy-biphenyl-4-carboxylic acid sodium salt] was tested, and the IC50 ([1]; pH 7.8, sodium salt) was 110 nM.

With `COC(=O)c1cccc(-c2ccc(OC)c(OC3CCCC3)c2)c1` [Example 18, 3'-Cyclopentyloxy-4'-methoxy-biphenyl-3-carboxylic acid methyl ester] the IC50 (PDE IV) was 230 nM and the IC50 ([1]; pH 7.8) was 31 nM.

`COC(=O)c1ccc(-c2ccc(OC)c(OC3CCCC3)c2)cc1` [Example 19, 3'-Cyclopentyloxy-4'-methoxy-biphenyl-4-carboxylic acid methyl ester] showed an IC50 ([1]; pH 7.8) of 580 nM.

Work on `COc1ccc(-c2ccc3c(c2)CCCC3=O)cc1OC1CCCC1` [Example 20, 6-(3-Cyclopentyloxy-4-methoxy-phenyl)-3,4-dihydro-2H-naphthalen-1-one] yielded an IC50 ([1]; pH 7.8) of 59 nM.

For `COc1ccc(-c2ccc3c(c2)CCC/C3=N\O)cc1OC1CCCC1` [Example 21, (E)-6-(3-Cyclopentyloxy-4-methoxy-phenyl)-3,4-dihydro-2H-naphthalen-1-one oxime], the IC50 ([1]; pH 7.8) was 290 nM.

`COc1ccc(-c2ccc(C=NO)cc2)cc1OC1CCCC1` [Example 22, 3'-Cyclopentyloxy-4'-methoxy-biphenyl-4-carbaldehyde oxime] was tested, and the IC50 (PDE IV) was 140 nM and the IC50 ([1]; pH 7.8) was 36 nM.

For `COc1ccc(-c2cccc(C=NO)c2)cc1OC1CCCC1` [Example 23, 3'-Cyclopentyloxy-4'-methoxy-biphenyl-3-carbaldehyde oxime], the IC50 (PDE IV) was 1900 nM and the IC50 ([1]; pH 7.8) was 39 nM.

With `COc1ccc(-c2ccc3c(c2)CCC/C3=N\OC(C)=O)cc1OC1CCCC1` [Example 25, E-6-(3-Cyclopentyloxy-4-methoxy-phenyl)-3,4-dihydro-2H-naphthalen-1-one oxime acetate] the IC50 ([1]; pH 7.8) was 730 nM.

`COc1ccc(-c2ccc(NC(N)=O)cc2)cc1OC1CCCC1` [Example 26, (3'-Cyclopentyloxy-4'-methoxy-biphenyl-4-yl)-urea] gave an IC50 ([1]; pH 7.8) of 270 nM.

In the case of `COc1ccc(-c2cccc(NC(N)=O)c2)cc1OC1CCCC1` [Example 27, (3'-Cyclopentyloxy-4'-methoxy-biphenyl-3-yl)-urea], the IC50 ([1]; pH 7.8) is reported as 550 nM.

Work on `COc1ccc(-c2ccc(NC(C)=O)cc2)cc1OC1CCCC1` [Example 28, N-(3'-Cyclopentyloxy-4'-methoxy-biphenyl-4-yl)-acetamide] yielded an IC50 ([1]; pH 7.8) of 1000 nM.

With `COc1ccc(-c2cccc(NC(C)=O)c2)cc1OC1CCCC1` [Example 29, N-(3'-Cyclopentyloxy-4'-methoxy-biphenyl-3-yl)-acetamide] the IC50 ([1]; pH 7.8) was 470 nM.

Compound `COc1ccc(-c2cccc(C(N)=O)c2)cc1OC1CCCC1` [Example 30, 3'-Cyclopentyloxy-4'-methoxy-biphenyl-3-carboxylic acid amide] has an IC50 ([1]; pH 7.8) of 16 nM.

`COc1ccc(-c2ccc(C(=O)NO)cc2)cc1OC1CCCC1` [Example 31, 3'-Cyclopentyloxy-4'-methoxy-biphenyl-4-carboxylic acid hydroxylamide] was tested, and the IC50 ([1]; pH 7.8) was 100 nM.

`COc1ccc(-c2ccc(C(=O)O)c(C(=O)O)c2)cc1OC1CCCC1` [Example 32, 3'-Cyclopentyloxy-4'-methoxy-biphenyl-3,4-dicarboxylic acid] showed an IC50 ([1]; pH 7.8) of 10000 nM.

`COC(=O)c1ccc(-c2ccc(OC)c(OC3CCCC3)c2)cc1C(=O)OC` [Example 33, 3'-Cyclopentyloxy-4'-methoxy-biphenyl-3,4-dicarboxylic acid dimethyl ester] showed an IC50 ([1]; pH 7.8) of 1100 nM.

`COc1ccc(-c2ccc3c(=O)[nH][nH]c(=O)c3c2)cc1OC1CCCC1` [Example 34, 6-(3'-Cyclopentyloxy-4-methoxyphenyl)-2,3-dihydrophthalizine-1,4-dione] gave an IC50 ([1]; pH 7.8) of 49 nM.
